From patent US20230365533A1, “BICYCLOHEPTANE PYRROLIDINE OREXIN RECEPTOR AGONISTS” (MERCK SHARP & DOHME CORP., priority 2021, published 2023)

Target: T1, human OX2R (Homo sapiens, UniProt O43614)
T1 construct: expressed in transfected cells; host or cells: CHO (Chinese hamster ovary) cells, grown under G418 selection
T1 sequence (O43614 1-444): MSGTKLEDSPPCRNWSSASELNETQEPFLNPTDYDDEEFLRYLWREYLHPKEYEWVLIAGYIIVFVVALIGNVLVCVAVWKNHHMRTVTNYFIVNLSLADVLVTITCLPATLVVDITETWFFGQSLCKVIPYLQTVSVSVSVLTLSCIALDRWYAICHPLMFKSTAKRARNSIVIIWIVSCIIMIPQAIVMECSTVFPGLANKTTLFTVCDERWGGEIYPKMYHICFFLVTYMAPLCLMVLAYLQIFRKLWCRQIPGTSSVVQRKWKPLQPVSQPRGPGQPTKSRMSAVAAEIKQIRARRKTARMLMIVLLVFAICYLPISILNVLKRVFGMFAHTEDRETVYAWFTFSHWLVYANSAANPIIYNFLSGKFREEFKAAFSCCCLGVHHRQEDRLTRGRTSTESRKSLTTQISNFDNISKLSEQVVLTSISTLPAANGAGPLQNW
Test: IPOne (IP-1) orexin receptor agonist assay in CHO cells expressing human OX2R
Format: cell-based
Settings: for IC50: IPOne assay, CHO cells expressing human OX2R, 2 hours incubation, read-out: hoX2R_IP IC50
In short: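 CHO cells with human OX2R treated 2 h at 37 °C with 10-point ½-log compound dilutions in stimulation buffer; IP-1 accumulation read by HTRF (665/620 nm) after 60 min detection. EC50 from four-parameter fit; % effect versus a 1 uM reference agonist.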

**Q.** CCS(=O)(=O)N[C@H]1C[C@@H](C(F)F)N(C(=O)OC)[C@H]1COC1CCC2(c3ncc(F)cn3)CC2C1 (stereo partly drawn) [Example 117, methyl (2R,3S,5S)-5-(difluoromethyl)-3-(ethylsulfonamido)-2-(((6-(5-fluoropyrimidin-2-yl)bicyclo[4.1.0]heptan-3-yl)oxy)methyl)pyrrolidine-1-carboxylate] was tested. Which IC50 did it give?
**A.** 1.2 nM

**Q.** COC(=O)N1[C@H](C)C[C@H](NS(=O)(=O)C(F)F)[C@@H]1CO[C@H]1CC[C@@]2(c3ncc(Cl)cn3)C[C@H]2C1 (single isomer, unassigned) [Example 78] was tested. Which IC50 did it give?
**A.** 1.2 nM

**Q.** Which IC50 does the source give for COC(=O)N1[C@H](C)C[C@H](NS(C)(=O)=O)[C@@H]1COC1CCC2(c3ncc(F)c(C(F)F)n3)CC2C1 (stereo partly drawn) [Example 73, methyl (2R,3S,5R)-2-(((6-(4-(difluoromethyl)-5-fluoropyrimidin-2-yl)bicyclo[4.1.0]heptan-3-yl)oxy)methyl)-5-methyl-3-(methylsulfonamido)pyrrolidine-1-carboxylate] here?
**A.** 220 nM

**Q.** Which IC50 does the source give for CC(C)OC(=O)N1[C@H](C)C[C@H](NS(=O)(=O)CF)[C@@H]1COC1CCC2(c3ncc(Cl)cn3)CC2C1 (stereo partly drawn) [Example 107, isopropyl (2R,3S,5R)-2-(((6-(5-chloropyrimidin-2-yl)bicyclo[4.1.0]heptan-3-yl)oxy)methyl)-3-((fluoromethyl)sulfonamido)-5-methylpyrrolidine-1-carboxylate] here?
**A.** 4.5 nM

**Q.** For C[C@@H]1C[C@H](NS(C)(=O)=O)[C@H](CO[C@H]2CC[C@@]3(c4ncc(F)cn4)C[C@H]3C2)N1C(=O)OCC(F)C1CCC1 (stereo partly drawn) [Example 54, 2-cyclobutyl-2-fluoroethyl (2R,3S,5R)-2-((((1S,3S,6R)-6-(5-fluoropyrimidin-2-yl)bicyclo[4.1.0]heptan-3-yl)oxy)methyl)-5-methyl-3-(methylsulfonamido)pyrrolidine-1-carboxylate], which IC50 is on record?
**A.** 6 nM

**Q.** With C[C@@H]1C[C@H](NS(C)(=O)=O)[C@H](CO[C@H]2CC[C@@]3(c4ncc(F)cn4)C[C@H]3C2)N1C(=O)OCC1(C)CC1(F)F (stereo partly drawn) [Example 57, (2,2-difluoro-1-methylcyclopropyl)methyl (2R,3S,5R)-2-((((1S,3S,6R)-6-(5-fluoropyrimidin-2-yl)bicyclo[4.1.0]heptan-3-yl)oxy)methyl)-5-methyl-3-(methylsulfonamido)pyrrolidine-1-carboxylate] as the molecule, how does the IC50 read?
**A.** 1.4 nM

**Q.** Which Emax (CHO, percent of mean max effect of a reference compound at 1 uM with 100% activity vs Orexin A, human OX2R) does the source give for COC(=O)N1[C@H](C)C[C@H](NS(=O)(=O)N(C)C)[C@@H]1COC1CCC2(c3ncc(F)cn3)CC2C1 (stereo partly drawn) [Example 169, methyl (2R,3S,5R)-3-((N,N-dimethylsulfamoyl)amino)-2-(((6-(5-fluoropyrimidin-2-yl)bicyclo[4.1.0]heptan-3-yl)oxy)methyl)-5-methylpyrrolidine-1-carboxylate] here?
**A.** 100%

**Q.** How did the IC50 turn out when CC(C)OC(=O)N1[C@H](C)C[C@H](NS(=O)(=O)N(C)C)[C@@H]1CO[C@H]1CC[C@@]2(c3ncccn3)C[C@H]2C1 (single isomer, unassigned) [Example 171] was run?
**A.** 2.3 nM

**Q.** With COC(=O)N1[C@H](C(F)F)C[C@H](NS(=O)(=O)C(C)C)[C@@H]1COC1CCC2(c3ncc(F)cn3)CC2C1 (stereo partly drawn) [Example 120, methyl (2R,3S,5S)-5-(difluoromethyl)-2-(((6-(5-fluoropyrimidin-2-yl)bicyclo[4.1.0]heptan-3-yl)oxy)methyl)-3-((1-methylethyl)sulfonamido)pyrrolidine-1-carboxylate] as the molecule, how does the IC50 read?
**A.** 2.4 nM

**Q.** For COC(=O)N1[C@H](C)C[C@H](NS(=O)(=O)C2COC2)[C@@H]1CO[C@H]1CC[C@@]2(c3ncc(F)cn3)C[C@H]2C1 [Example 40, methyl (2R,3S,5R)-2-((((1S,3S,6R)-6-(5-fluoropyrimidin-2-yl)bicyclo[4.1.0]heptan-3-yl)oxy)methyl)-5-methyl-3-(oxetane-3-sulfonamido)pyrrolidine-1-carboxylate], which IC50 is on record?
**A.** 4.4 nM

**Q.** For COC(=O)N1[C@H](C)C[C@H](NS(=O)(=O)C(F)F)[C@@H]1CO[C@@H]1CC[C@]2(c3ncccn3)C[C@@H]2C1 (single isomer, unassigned) [Example 69], which IC50 is on record?
**A.** 20.4 nM

**Q.** How did the IC50 turn out when COC(=O)N1[C@H](C)C[C@H](NS(=O)(=O)CF)[C@@H]1COC1CCC2(c3ncc(Cl)cn3)CC2C1 (stereo partly drawn) [Example 94, methyl (2R,3S,5R)-2-(((6-(5-chloropyrimidin-2-yl)bicyclo[4.1.0]heptan-3-yl)oxy)methyl)-3-((fluoromethyl)sulfonamido)-5-methylpyrrolidine-1-carboxylate] was run?
**A.** 1.7 nM

**Q.** With COC(=O)N1[C@H](C)C[C@H](NS(C)(=O)=O)[C@@H]1COC1CCC2(c3ncc(C)cn3)CC2C1 (stereo partly drawn) [Example 159, methyl (2R,3S,5R)-5-methyl-2-(((6-(5-methylpyrimidin-2-yl)bicyclo[4.1.0]heptan-3-yl)oxy)methyl)-3-(methylsulfonamido)pyrrolidine-1-carboxylate] as the molecule, how does the IC50 read?
**A.** 79.4 nM

**Q.** How did the IC50 turn out when CC(C)OC(=O)N1[C@H](C)C[C@H](NS(C)(=O)=O)[C@@H]1COC1CCC2(c3ncc(Cl)cn3)CC2C1 (stereo partly drawn) [Example 154, isopropyl (2R,3S,5R)-2-(((6-(5-chloropyrimidin-2-yl)bicyclo[4.1.0]heptan-3-yl)oxy)methyl)-5-methyl-3-(methylsulfonamido)pyrrolidine-1-carboxylate] was run?
**A.** 16.9 nM

**Q.** Which IC50 does the source give for COC(=O)N1[C@H](C)C[C@H](NS(=O)(=O)N2CCC2)[C@@H]1CO[C@H]1CC[C@@]2(c3ncc(F)cn3)C[C@H]2C1 [Example 39, methyl (2R,3S,5R)-3-(azetidine-1-sulfonamido)-2-((((1S,3S,6R)-6-(5-fluoropyrimidin-2-yl)bicyclo[4.1.0]heptan-3-yl)oxy)methyl)-5-methylpyrrolidine-1-carboxylate] here?
**A.** 2 nM

**Q.** With COC(=O)N1[C@@H]2CCC[C@@H]2[C@H](NS(=O)(=O)C2CC2)[C@@H]1COC1CCC2(c3ncc(F)cn3)CC2C1 (stereo partly drawn) [Example 128, methyl (2R,3S,3aS,6aR)-3-(cyclopropanesulfonamido)-2-(((6-(5-fluoropyrimidin-2-yl)bicyclo[4.1.0]heptan-3-yl)oxy)methyl)hexahydrocyclopenta[b]pyrrole-1(2H)-carboxylate] as the molecule, how does the IC50 read?
**A.** 1.8 nM

**Q.** Which IC50 does the source give for COC(=O)N1[C@H](C)C[C@H](NS(=O)(=O)CF)[C@@H]1COC1CCC2(c3ncc(Cl)c(OC)n3)CC2C1 (stereo partly drawn) [Example 86, methyl (2R,3S,5R)-2-(((6-(5-chloro-4-methoxypyrimidin-2-yl)bicyclo[4.1.0]heptan-3-yl)oxy)methyl)-3-((fluoromethyl)sulfonamido)-5-methylpyrrolidine-1-carboxylate] here?
**A.** 9.9 nM

**Q.** With COC(=O)N1[C@H](C)C[C@H](NS(C)(=O)=O)[C@@H]1COC1CCC2(c3ncc(F)c(OC)n3)CC2C1 (stereo partly drawn) [Example 76, methyl (2R,3S,5R)-2-(((6-(5-fluoro-4-methoxypyrimidin-2-yl)bicyclo[4.1.0]heptan-3-yl)oxy)methyl)-5-methyl-3-(methylsulfonamido)pyrrolidine-1-carboxylate] as the molecule, how does the IC50 read?
**A.** 51.2 nM

**Q.** For COC(=O)N1[C@H](C)C[C@H](NS(C)(=O)=O)[C@@H]1COC1CCC2(c3ncc(Cl)c(C(F)(F)F)n3)CC2C1 (stereo partly drawn) [Example 72, methyl (2R,3S,5R)-2-(((6-(5-chloro-4-(trifluoromethyl)pyrimidin-2-yl)bicyclo[4.1.0]heptan-3-yl)oxy)methyl)-5-methyl-3-(methylsulfonamido)pyrrolidine-1-carboxylate], which IC50 is on record?
**A.** 187 nM

**Q.** For CCCS(=O)(=O)N[C@H]1C[C@@H](C)N(C(=O)OC)[C@H]1CO[C@H]1CC[C@@]2(c3ncc(F)cn3)C[C@H]2C1 [Example 33, methyl (2R,3S,5R)-2-((((1S,3S,6R)-6-(5-fluoropyrimidin-2-yl)bicyclo[4.1.0]heptan-3-yl)oxy)methyl)-5-methyl-3-(propylsulfonamido)pyrrolidine-1-carboxylate], which IC50 is on record?
**A.** 5.4 nM

**Q.** Which IC50 does the source give for COC[C@@H]1C[C@H](NS(C)(=O)=O)[C@H](CO[C@H]2CC[C@@]3(c4ncc(F)cn4)C[C@H]3C2)N1C(=O)OC [Example 132, methyl (2R,3S,5S)-2-((((1S,3S,6R)-6-(5-fluoropyrimidin-2-yl)bicyclo[4.1.0]heptan-3-yl)oxy)methyl)-5-(methoxymethyl)-3-(methylsulfonamido)pyrrolidine-1-carboxylate] here?
**A.** 9.7 nM

**Q.** With COC(=O)N1[C@H](C)C[C@H](NS(C)(=O)=O)[C@@H]1COC1CCC2(c3ncc(OC(F)F)c(C)n3)CC2C1 (stereo partly drawn) [Example 75, methyl (2R,3S,5R)-2-(((6-(5-(difluoromethoxy)-4-methylpyrimidin-2-yl)bicyclo[4.1.0]heptan-3-yl)oxy)methyl)-5-methyl-3-(methylsulfonamido)pyrrolidine-1-carboxylate] as the molecule, how does the IC50 read?
**A.** 257 nM

**Q.** For COC(=O)N1[C@H](C)C[C@H](NS(=O)(=O)C(C)C)[C@@H]1CO[C@@H]1CC[C@]2(c3ncc(F)cn3)C[C@@H]2C1 [Example 46, methyl (2R,3S,5R)-2-((((1R,3R,6S)-6-(5-fluoropyrimidin-2-yl)bicyclo[4.1.0]heptan-3-yl)oxy)methyl)-5-methyl-3-((1-methylethyl)sulfonamido)pyrrolidine-1-carboxylate], which IC50 is on record?
**A.** 13.4 nM

**Q.** Which IC50 does the source give for COC(=O)N1CC[C@H](NS(C)(=O)=O)[C@@H]1COC1CCC2(c3ncccn3)CC2C1 (stereo partly drawn) [Example 185, methyl (2R,3S)-3-(methylsulfonamido)-2-(((6-(pyrimidin-2-yl)bicyclo[4.1.0]heptan-3-yl)oxy)methyl)pyrrolidine-1-carboxylate] here?
**A.** 1620 nM
